Counter-ions that a name gives are not always drawn.
What was measured:
Assay type in all cases: cell-based
[1] = system: Acinetobacter baumannii XNWB 0007; assay: MIC assay of test compounds combined with ceftazidime (8 μg/mL); details: ceftazidime 8 μg/mL fixed
Method in brief: (§1)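 Each compound was titrated in CAMHB in the presence of a constant partner antibiotic and challenged with a bacterial suspension prepared to OD600 0.1-0.15 in saline, then diluted 300-fold. Incubation lasted 16-20 h at 35±2 °C in air.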

[2] = system: Klebsiella pneumoniae XNWB 0001; assay: as above; details: ceftazidime 8 μg/mL fixed
Method in brief: as §1

[3] = system: Klebsiella pneumoniae XNWB 0002; assay: as above; details: ceftazidime 8 μg/mL fixed
Method in brief: as §1

[4] = system: Klebsiella pneumoniae XNWB 0003; assay: as above; details: ceftazidime 8 μg/mL fixed
Method in brief: as §1

[5] = system: Klebsiella pneumoniae XNWB 0004; assay: as above; details: ceftazidime 8 μg/mL fixed
Method in brief: as §1

[6] = system: Klebsiella pneumoniae XNWB 0005; assay: as above; details: ceftazidime 8 μg/mL fixed
Method in brief: as §1

[7] = system: Klebsiella pneumoniae XNWB 0006; assay: as above; details: ceftazidime 8 μg/mL fixed
Method in brief: as §1

[8] = system: Pseudomonas aeruginosa XNWB 0008; assay: as above; details: ceftazidime 8 μg/mL fixed
Method in brief: as §1

[9] = system: Acinetobacter baumannii XNWB 0007; assay: MIC assay of test compounds combined with imipenem (4 μg/mL); details: imipenem 4 μg/mL fixed
Method in brief: as §1

[10] = system: Klebsiella pneumoniae XNWB 0001; assay: as above; details: imipenem 4 μg/mL fixed
Method in brief: as §1

[11] = system: Klebsiella pneumoniae XNWB 0002; assay: as above; details: imipenem 4 μg/mL fixed
Method in brief: as §1

[12] = system: Klebsiella pneumoniae XNWB 0003; assay: as above; details: imipenem 4 μg/mL fixed
Method in brief: as §1

[13] = system: Klebsiella pneumoniae XNWB 0004; assay: as above; details: imipenem 4 μg/mL fixed
Method in brief: as §1

[14] = system: Klebsiella pneumoniae XNWB 0005; assay: as above; details: imipenem 4 μg/mL fixed
Method in brief: as §1

[15] = system: Klebsiella pneumoniae XNWB 0006; assay: as above; details: imipenem 4 μg/mL fixed
Method in brief: as §1

[16] = system: Pseudomonas aeruginosa XNWB 0008; assay: as above; details: imipenem 4 μg/mL fixed
Method in brief: as §1

SMILES | The minimum concentration of test compounds combined with ceftazidime (8 μg/mL) for bacteriostasis [1] | The minimum concentration of test compounds combined with ceftazidime (8 μg/mL) for bacteriostasis [2] | The minimum concentration of test compounds combined with ceftazidime (8 μg/mL) for bacteriostasis [3] | The minimum concentration of test compounds combined with ceftazidime (8 μg/mL) for bacteriostasis [4] | The minimum concentration of test compounds combined with ceftazidime (8 μg/mL) for bacteriostasis [5] | The minimum concentration of test compounds combined with ceftazidime (8 μg/mL) for bacteriostasis [6] | The minimum concentration of test compounds combined with ceftazidime (8 μg/mL) for bacteriostasis [7] | The minimum concentration of test compounds combined with ceftazidime (8 μg/mL) for bacteriostasis [8] | The minimum concentration of test compounds combined with imipenem (4 μg/mL) for bacteriostasis [9] | The minimum concentration of test compounds combined with imipenem (4 μg/mL) for bacteriostasis [10] | The minimum concentration of test compounds combined with imipenem (4 μg/mL) for bacteriostasis [11] | The minimum concentration of test compounds combined with imipenem (4 μg/mL) for bacteriostasis [12] | The minimum concentration of test compounds combined with imipenem (4 μg/mL) for bacteriostasis [13] | The minimum concentration of test compounds combined with imipenem (4 μg/mL) for bacteriostasis [14] | The minimum concentration of test compounds combined with imipenem (4 μg/mL) for bacteriostasis [15] | The minimum concentration of test compounds combined with imipenem (4 μg/mL) for bacteriostasis [16]
O=C(NC1CCNCC1)[C@@H]1CC2(CC2)[C@@H]2CN1C(=O)N2OS(=O)(=O)O [Example 27, (1R,4S)-6-oxo-4-(piperidin-4-ylaminoformyl)-5,7-diazaspiro[bicyclo[3.2.1]octane-2,1′-cyclopropan]-7-yl sulfate] | C (C: 16-128 μg/mL) | A (A: <8 μg/mL) | A (A: <8 μg/mL) | B (B: 8-16 μg/mL) | B (B: 8-16 μg/mL) | A (A: <8 μg/mL) | A (A: <8 μg/mL) | A (A: <8 μg/mL) | C (C: 16-128 μg/mL) | A (A: <8 μg/mL) | A (A: <8 μg/mL) | A (A: <8 μg/mL) | A (A: <8 μg/mL) | A (A: <8 μg/mL) | A (A: <8 μg/mL) | A (A: <8 μg/mL)
O=C(NC1CCNC1)[C@@H]1CC2(CC2)[C@@H]2CN1C(=O)N2OS(=O)(=O)O (stereo partly drawn) [Example 28, (1R,4S)-6-oxo-4-(pyrrolidin-3-ylaminoformyl)-5,7-diazaspiro[bicyclo[3.2.1]octane-2,1′-cyclopropan]-7-yl sulfate] | C (C: 16-128 μg/mL) | A (A: <8 μg/mL) | A (A: <8 μg/mL) | A (A: <8 μg/mL) | B (B: 8-16 μg/mL) | A (A: <8 μg/mL) | A (A: <8 μg/mL) | A (A: <8 μg/mL) | C (C: 16-128 μg/mL) | A (A: <8 μg/mL) | A (A: <8 μg/mL) | A (A: <8 μg/mL) | A (A: <8 μg/mL) | A (A: <8 μg/mL) | A (A: <8 μg/mL) | A (A: <8 μg/mL)
O=C1N2C[C@H](N1OS(=O)(=O)O)C1(CC1)C[C@H]2c1ccon1 [Example 54, (1R,4S)-4-(isoxazol-3-yl)-6-oxo-5,7-diazaspiro[bicyclo[3.2.1]octane-2,1′-cyclopropan]-7-yl sulfate] | C (C: 16-128 μg/mL) | B (B: 8-16 μg/mL) | A (A: <8 μg/mL) | B (B: 8-16 μg/mL) | C (C: 16-128 μg/mL) | C (C: 16-128 μg/mL) | A (A: <8 μg/mL) | C (C: 16-128 μg/mL) | C (C: 16-128 μg/mL) | A (A: <8 μg/mL) | A (A: <8 μg/mL) | A (A: <8 μg/mL) | A (A: <8 μg/mL) | A (A: <8 μg/mL) | A (A: <8 μg/mL) | C (C: 16-128 μg/mL)
CNCCc1cc([C@@H]2CC3(CC3)[C@@H]3CN2C(=O)N3OS(=O)(=O)O)no1 [Example 42, (1R,4S)-4-(5-(2-(methylamino)ethyl)isoxazol-3-yl)-6-oxo-5,7-diazaspiro[bicycle[3.2.1]octane-2,1′-cyclopropan]-7-yl sulfate] | C (C: 16-128 μg/mL) | A (A: <8 μg/mL) | A (A: <8 μg/mL) | A (A: <8 μg/mL) | B (B: 8-16 μg/mL) | A (A: <8 μg/mL) | A (A: <8 μg/mL) | C (C: 16-128 μg/mL) | C (C: 16-128 μg/mL) | A (A: <8 μg/mL) | A (A: <8 μg/mL) | A (A: <8 μg/mL) | A (A: <8 μg/mL) | A (A: <8 μg/mL) | A (A: <8 μg/mL) | B (B: 8-16 μg/mL)
CNC1(Cc2nnc([C@@H]3CC4(CC4)[C@@H]4CN3C(=O)N4OS(=O)(=O)O)o2)CC1 [Example 22, (1R,4S)-4-(5-((1-(methylamino)cyclopropyl)methyl)-1,3,4-oxadiazol-2-yl)-6-oxo-5,7-diazaspiro[bicyclo[3.2.1]octane-2,1′-cyclopropan]-7-yl sulfate] | C (C: 16-128 μg/mL) | B (B: 8-16 μg/mL) | A (A: <8 μg/mL) | B (B: 8-16 μg/mL) | C (C: 16-128 μg/mL) | B (B: 8-16 μg/mL) | A (A: <8 μg/mL) | C (C: 16-128 μg/mL) | C (C: 16-128 μg/mL) | A (A: <8 μg/mL) | A (A: <8 μg/mL) | A (A: <8 μg/mL) | A (A: <8 μg/mL) | A (A: <8 μg/mL) | A (A: <8 μg/mL) | C (C: 16-128 μg/mL)

From patent US11078202B2, “β-lactamase inhibitor and use thereof” (priority 2018, dated 2021)
